Measured values from patent US8211901B2, “Naphthamide derivatives as multi-target protein kinase inhibitors and histone deacetylase inhibitors” (Shenzhen Chipscreen Biosciences Ltd., priority 2009, dated 2012).

Experiments:
Format in all cases: in vivo, nu/nu mice
[1] = Body weight in A549 xenograft study (Example 51); details: 40 mg/kg orally once a day for 24 days
Protocol: The antitumor activity of compound 31 was measured in human A549 lung cancer xenograft model. […] Then the cultured A549 human lung cancer cells were implanted into the armpit of 50 mice. When tumors had reached approximately 6 mm in diameter, the mice were divided into 6 groups randomly. Each group has 8 mice. One group was treated with vehicle. One group was treated with sutent, the positive control drug. […] Each group was dosed orally once a day for 24 days. Tumor volumes as established by caliper measurements were recorded twice per week, along with body weights. At the end of study, the mice were killed, and tumors were weighed. The tumor growth inhibition of each group was calculated using the formula {[(the average tumor weight of vehicle group)-(the average tumor weight of drug group)]/(the average tumor weight of vehicle group)}×100%.

[2] = test system: human HCT-8 colon cancer xenograft; experiment: Antitumor activity of compounds 33 and 37, HCT-8 xenograft (Example 55); details: 40 mg/kg orally once a day for 20 days
Protocol: (§1) The antitumor activity of compound 33 and compound 37 were measured in human HCT-8 colon cancer xenograft model. The female nu/nu mice of 18˜20 g were fed by normal diet for 3 days. Then the cultured HCT-8 human colon cancer cells were implanted into the armpit of 50 mice. […] One group was treated with vehicle. One group was treated with sutent, the positive control drug. Two groups were treated with compound 33. The other two groups were treated with compound 37. Compound 33 was administered twice a day with an interval of 6 hours. Other drugs and vehicle were administered once a day. Each group was dosed orally for 20 days. Tumor volumes as established by caliper measurements were recorded twice per week, along with body weights. At the end of study, the mice were killed, and tumors were weighed. The tumor growth inhibition of each group was calculated using the formula {[(the average tumor weight of vehicle group)−(the average tumor weight of drug group)]/(the average tumor weight of vehicle group)}×100%.

[3] = test system: human SSMC7721 liver cancer xenograft; experiment: Antitumor activity of compound 31, SSMC7721 xenograft (Example 53); details: 40 mg/kg orally once a day for 30 days
Protocol: (§2) The antitumor activity of compound 31 was measured in human SSMC7721 liver cancer xenograft model. The female nu/nu mice of 18˜20 g were fed by normal diet for 3 days. Then the cultured SSMC7721 human liver cancer cells were implanted into the armpit of 50 mice. […] One group was treated with vehicle. One group was treated with sutent, the positive control drug. […] Each group was dosed orally once a day for 30 days. Tumor volumes as established by caliper measurements were recorded twice per week, along with body weights. At the end of study, the mice were killed, and tumors were weighed. The tumor growth inhibition of each group was calculated using the formula {[(the average tumor weight of vehicle group)−(the average tumor weight of drug group)]/(the average tumor weight of vehicle group)}×100%.

[4] = Body weight in HCT-8 xenograft study (Example 54); details: 40 mg/kg orally once a day for 20 days
Protocol: (§3) The antitumor activity of compound 33 and compound 34 were measured in human HCT-8 colon cancer xenograft model. The female nu/nu mice of 18˜20 g were fed by normal diet for 3 days. Then the cultured HCT-8 human colon cancer cells were implanted into the armpit of 50 mice. When tumors had reached approximately 100 mm^3, the mice were divided into 6 groups randomly. Each group has 8 mice. One group was treated with vehicle. One group was treated with sutent, the positive control drug. Two groups were treated with compound 33. The other two groups were treated with compound 34. Each group was dosed orally once a day for 20 days. Tumor volumes as established by caliper measurements were recorded twice per week, along with body weights. At the end of study, the mice were killed, and tumors were weighed. The tumor growth inhibition of each group was calculated using the formula {[(the average tumor weight of vehicle group)−(the average tumor weight of drug group)]/(the average tumor weight of vehicle group)}×100%.

[5] = Body weight in SSMC7721 xenograft study (Example 56); details: 40 mg/kg orally once a day for 30 days
Protocol: The antitumor activity of compound 33 and compound 37 were measured in human SSMC7721 liver cancer xenograft model. The female nu/nu mice of 18˜20 g were fed by normal diet for 3 days. Then the cultured SSMC7721 human liver cancer cells were implanted into the armpit of 50 mice. […] Each group has 8 mice. One group was treated with vehicle. One group was treated with sutent, the positive control drug. Two groups were treated with compound 33. The other two groups were treated with compound 37. Each group was dosed orally once a day for 30 days. Tumor volumes as established by caliper measurements were recorded twice per week, along with body weights. At the end of study, the mice were killed, and tumors were weighed. The tumor growth inhibition of each group was calculated using the formula {[(the average tumor weight of vehicle group)−(the average tumor weight of drug group)]/(the average tumor weight of vehicle group)}×100%.

[6] = Body weight in HCT-8 xenograft study (Example 55); details: 40 mg/kg orally once a day for 20 days
Protocol: as §1

[7] = Body weight in SSMC7721 xenograft study (Example 53); details: 40 mg/kg orally once a day for 30 days
Protocol: as §2

[8] = Body weight in HCT-8 xenograft study (Example 52); details: 40 mg/kg orally once a day for 20 days
Protocol: as §3, with “31 was” for “33 and compound 34 were”, “Two groups were treated with compound 33. The other two groups were treated with compound 34.” left out

## CCN(CC)CCNC(=O)c1c(C)[nH]c(/C=C2\C(=O)Nc3ccc(F)cc32)c1C [Sutent, reference compound]
[1]; end
  Body weight (g) end: 24.4 ± 2.3 g
[1]; start
  Body weight (g) start: 20.3 ± 1.4 g
[2]
  TGI (%) Tumor growth inhibition: 95.3%
[3]
  TGI (%) Tumor growth inhibition: 70.3%
  Tumor weight: 1.00 ± 0.68 g
[4]; end
  Body weight (g) end: 22.1 ± 1.5 g
[4]; start
  Body weight (g) start: 20.6 ± 1.2 g
[5]; end
  Body weight (g) end: 24.0 ± 0.6 g
[5]; start
  Body weight (g) start: 21.2 ± 1.1 g
[6]; end
  Body weight (g) end: 23.7 ± 0.8 g
[6]; start
  Body weight (g) start: 21.3 ± 0.6 g
[7]; end
  Body weight (g) end: 24.8 ± 1.2 g
[7]; start
  Body weight (g) start: 21.0 ± 0.8 g
[8]; end
  Body weight (g) end: 22.4 ± 1.1 g
[8]; start
  Body weight (g) start: 21.5 ± 0.7 g
